According to US6355785B1, “Guanosine-rich oligonucleotide integrase inhibitors” (Aronex Pharmaceuticals, Inc., priority 1993, dated 2002):
pIC50: −log10 of the molar value.

Legend:
[1] = parameters: species or system cynomolgus monkeys; conditions: cynomolgus monkey, in vivo
Description: AR177 plasma HPLC analysis. Blood was taken for plasma analysis of AR177 just prior to, and at 5, 30 and 240 minutes following administration of doses 1 and 12. The plasma fraction was obtained by low speed centrifugation of blood, and stored at −20° C. until analyzed for the AR177 concentration. Plasma AR177 concentrations were assayed using an anion-exchange HPLC method on a Waters HPLC system with a 626 pump, 996 photodiode array detector, 717 autosampler and Millennium system software controlled by an NEC Image 466 computer. Buffer A was 0.1 M Tris base, 20% methanol, pH 12, and Buffer B was 0.1 M Tris base, 1.0 M NaBr, pH12. anion-exchange column tGen-Pak Fax column) was equilibrated at 80% buffer A/20% buffer B for 30 minutes before each HPLC run. Fifty microliters of plasma were analyzed per run. The elusion conditions were: a) five-minute isocratic run at 80% A/20% B, during which the majority of the plasma proteins eluted, b) 30-minute linear gradient to 30% A/70% B during which the AR177 eluted, c) five-minute isocratic run at 30% A/70% B. d) one minute linear gradient to 100% B. e) two- minute run at 100% B for initial column cleanup, and fl two-minute linear gradient to 70% A/30% B for the initial step in the clean-up method for HPLC column clean-up. […]

[2] = Oligomer folding by circular dichroism; conditions: KCl, 25° C., 20 mM Li3PO4
[3] = system: Polio virus-1
[4] = molecular target: HIV-1 integrase (wild-type and deletion mutants) (Human immunodeficiency virus type 1 group M subtype B, UniProt P12497); experiment: UV crosslinking DNA binding experiments
Description: UV crosslinking experiments. The method used has been described by Engleman et al. Engelman, et al., J. Virol. 68, 5911-5917 (1994). Briefly, integrase (at the indicated concentration) was incubated with substrate in reaction buffer as above for 5 minutes at 30° C. Reactions were then irradiated with a UV transilluminator (254 nm wavelength) from 3 cm above (2.4 mW/cm2) at room temperature for 10 minutes. An equal volume (16 μL) of 2X SDS-PAGE buffer (100 mM Tris, pH 6.8, 4% 2-mercaptoethanol, 4% SDS, 0.2% bromophenol blue, 20% glycerol) was added to each reaction. Twenty μL aliquots were heated at 95° C. for 3 minutes prior to loading on a 12% or 18% SDS-polyacrylamide gel. The gel was run at 120 V for 1.5 hours, dried, and exposed in a Phosphorlmager cassette. […] For the competition experiments (FIG. 29), integrase (200 nM) was preincubated with either the radiolabeled viral DNA substrate (20 nM) or T30177 (20 nM) for 5 minutes at 30° C. prior to the addition of competitor DNA at the indicated concentration.

[5] = system: Yellow Fever virus
[6] = human, up to 236 ug/mL
[7] = Repeat-dose monkey study: coagulation parameters (aPTT); type: in vivo, cynomolgus monkeys
Description: Hematology and coagulation parameters. Hematology and coagulation parameters were determined 9-11 days prior to the start of the study, just prior to administering doses 1 (day 1) and 12 (day 23), five minutes after dosing (coagulation only), 30 minutes and 4 hours following dosing, one day after the 12th dose (day 24), and in recovery monkeys at sacrifice (day 37). The following were determined: red blood cell count and morphology, total and differential while blood cells, hemoglobin, hematocrit, prothrombin time, fibrinogen, mean cell hemoglobin, mean corpuscular volume, mean corpuscular hemoglobin concentration, platelet count, activate partial thromboplastin time, and D-dime. Hematology was determined at Sierra Nevada Laboratories (Reno, Nev.).

[8] = system: HIV-1 strains (SKI, RF, DV, IIIB, ADP/141); conditions: previously reported by Ojwang et al.; cited from earlier work

| Substance | metabolites (n−1, n−2) in plasma [1] | midpoint of K+ induced folding transition (CD, 264 nm) [2] [mM] | IC50 virus-induced cytopathogenicity ([3]; Polio virus-1) [µg/mL] | MCC minimum concentration altering normal cell morphology ([3]; Polio virus-1 assay) | competition of integrase complex by competitor DNA ([4]; competitor in 500-fold excess) | inhibition of integrase binding to radiolabeled U5 DNA substrate ([4]; enzyme preincubated with oligo) | concentration required for DNA-protein complex formation ([4]; radiolabeled T30177) [nM] | binding of IN1-55 (zinc finger domain) ([4]; zinc alone) | IC50 virus-induced cytopathogenicity ([5]; Yellow Fever virus) [µg/mL] | MCC minimum concentration altering normal cell morphology ([5]; Yellow Fever virus assay) [μg/mL] | complement CH50 [6] | anticoagulation activity (aPTT) ([7]; 2.5 mg/kg) | mean aPTT relative to pre-dose ([7]; 10 mg/kg, 5 minutes post-dosing, doses 1 and 12) | mean aPTT ([7]; 40 mg/kg, five minutes after dosing) | no effect plasma AR177 concentration versus aPTT ([7]; cynomolgus monkey, in vivo) | plasma AR177 concentration at doubling of aPTT ([7]; cynomolgus monkey, in vivo) | plasma AR177 concentration at tripling of aPTT ([7]; cynomolgus monkey, in vivo) | pIC50 [8] |
| --- | --- | --- | --- | --- | --- | --- | --- | --- | --- | --- | --- | --- | --- | --- | --- | --- | --- | --- |
| 5′-gtggtgggtgggtgggt-3′ (GTGGTGGGTGGGTGGGT; phosphorothioate termini, further chemistry not given here) [T30177] | No metabolites | 0.15 | >200 | ≧400 μg/mL | could not be competed off | inhibited | ~20 | able to bind | >200 | >200 |  |  |  |  |  |  |  |  |
| 5′-gtggtgggtgggtgggt-3′ [T30177] (GTGGTGGGTGGGTGGGT; phosphorothioate termini, further chemistry not given here) [pPT version of parent compound I100-15, 17 mer] |  |  |  |  |  |  |  |  |  |  | no effect | no anticoagulation activity | approximately twice the pre-dose value | exceeded the upper limit of the assay | 60-100 μg AR177/mL | 100-200 μg AR177/mL | 220-300 μg AR177/mL | 7.12 |
